Where two headings read alike, the source gives them in different places.
Tests used:
[1] = Kinematic viscosity measurement of e-liquid products (Example 6); assay type: physicochemical
Protocol: Then, the kinematic viscosity of products A, B, C and D is measured.

[2] = assay type: physicochemical; settings: for DTA Transformation temperature (exothermic peak, reaction and/or decomposition) / DTA Vaporization temperature (endothermic peak): 25 to 350° C.
Protocol: Thermogravimetric analysis is a thermal analysis method in which the changes of the physical and chemical properties of the materials are measured as a function of the temperature. TGA can yield information on the physical phenomena, such as vaporization or combustion.
Similarly, one can obtain information on chemical phenomena such as dehydration or decomposition. In differential thermal analysis (DTA), the material under study and an inert reference material are exposed to identical thermal cycles. During the analysis, the difference in temperature between the sample and the reference material is recorded. These differences in temperatures monitored versus time relative to the inert reference material provide information on the exothermic or endothermic thermal phenomena undergone by the sample. By integration of the heat flow curve, DTA analysis yields the so-called endothermic enthalpy values when there is energy absorption, or so-called exothermic enthalpy values when energy is released in the form of heat. The endothermic character is connected with a change in the state of the compound (for example, vaporization), while the exothermic character is induced by decomposition reactions or intra- and intermolecular chemical reactions.
The analysis conditions are the following: • test specimen: 50 mg • open crucible under air flow: 100 mL/min • heating ramp: 10° C./min • temperature range: 25 at 350° C. (temperature conditions representative of normal use and of misuse of an electronic cigarette). Between analyses, the apparatus is cleaned by heating at 600° C. under air flow, in order to eliminate any trace of unvaporized residue deposited on the crucible, the arms of the scale, or the walls of the furnace.

Row | SMILES | Kinematic viscosity at 20° C. [1] [mPa · s] | DTA Transformation temperature (exothermic peak, reaction and/or decomposition) ([2]; air flow, 10° C./min) | DTA Vaporization temperature (endothermic peak) ([2]; air flow, 10° C./min) [°C] | DTA residue unvaporized at 250° C. ([2]; air flow, 10° C./min) [%] | DTA Vaporization temperature (endothermic peak) ([2]; air flow, 10° C./min, listed as propylene glycol) [°C] | evaporation temperature lower than that of nicotine ([2]; difference to nicotine) [°C]
1 | OCCCO [1,3-propanediol] | 52.6 | without any thermal decomposition | 189 | – | – | –
2 | OCC(O)CO [Glycerol, glycerol] | – | – | 260 | 27.3 | – | –
3 | CC(O)CO (stereo not drawn) [Propylene glycol, propylene glycol] | – | without any thermal decomposition | 174 | – | 170 | 16

— patent US20160262443A1, “USE OF A COMPOSITION CONTAINING 1,3-PROPANEDIOL AS E-LIQUID” (priority 2014, published 2016)
